Experimental data published in patent US20240197687A1, “METHODS OF TREATING NEUROINFLAMMATION AND INHIBITING MONOAMINE OXIDASE-A AND RESTORING/UPREGULATING/INCREASING IL-13 AND AND PGC-1 BY ADMINISTERING ORAL DOSAGE FORM CONTAINING MICRONIZED AND NONMICRONIZED PARTICULATE METAXALONE, ALGINIC ACID AND PROPYLENE GLYCOL ALGINATE” (Primus Pharmaceuticals, Inc., priority 2022, published 2024).

Experiments:
CCI mice = details: cited from earlier work
PINP rats = details: cited from earlier work
RIM rats = details: melatonin supplementation, gastrocnemius muscle; cited from earlier work
FM fibroblasts = details: AMPK activation; cited from earlier work
[1] = test system: rat model of ischemia-reperfusion injury; details: cited from earlier work
[2] = test system: paclitaxel-induced neuropathic pain; details: via induction of the NRF-2/HO-1 signaling pathway in the spinal cord; cited from earlier work
[3] = test system: rat periodontal disease model; details: MAO up-regulation triggered by LPS; cited from earlier work
HMC3 microglial cells = test: MTT cell viability assay; details: 24, 48 and 72 h, metaxalone 10, 20, 40 μg/mL, staurosporine 100 nM positive control

For `CC1(C)CC[C@]2(NC(=O)C(C)(F)F)CC[C@]3(C)[C@H](C(=O)C=C4[C@@]5(C)C=C(C#N)C(=O)C(C)(C)[C@@H]5CC[C@]43C)[C@@H]2C1` [RTA-408], which “mechanical allodynia (von Frey test)” value (CCI mice; CCI mice, dose-dependent) is on record?
The value was “significantly reversed”.

And the “thermal hyperalgesia (Hargreaves plantar test)” value (CCI mice; CCI mice, dose-dependent)?
Its value is “significantly reversed”.

What about the “mitochondrial biogenesis (MB)” value (CCI mice; L4-6 spinal cord of CCI mice, NRF-2-dependent) of the same compound?
The value was “significantly restored”.

And the “activity of NRF-2” value (CCI mice; L4-6 spinal cord of CCI mice)?
The value was “increased”.

Which “analgesic effect of formoterol against PINP in presence of PGC-1α inhibitor” value (PINP rats; PINP rats) does the source give for `Cc1ccc(CN(CC(O)COc2cccc3[nH]ccc23)C(C)(C)C)cc1` (stereo not drawn) [SR-18292] here?
Its value is “partially abolished”.

For `COc1ccc(CC(C)NCC(O)c2ccc(O)c(NC=O)c2)cc1` (stereo not drawn) [formoterol], which “ADRB2 expression, mtDNA copy number and PGC-1α, NRF-1, TFAM protein expression” value (PINP rats; spinal cord of PINP rats) is on record?
Its value is “restored”.

For `COc1ccc2[nH]cc(CCNC(C)=O)c2c1` [melatonin], which “studied parameters (PGC-1α, Mfn2, CoQ10), oxidative stress” value (RIM rats) is on record?
The value was “significantly preserved all the studied parameters”.

For `CN(C)C(=N)N=C(N)N` [metformin], which “response to moderate oxidative stress and mitochondrial metabolism” value (FM fibroblasts) is on record?
Its value is “improved”.

For `O=C(NCCN1CCOCC1)c1ccc(Cl)cc1` [moclobemide], which inflammatory process [1] is on record?
Its inflammatory process is “attenuate”.

For `Cc1c(-c2cnccn2)ssc1=S` [oltipraz], which paclitaxel-induced neuropathic pain [2] is on record?
Its paclitaxel-induced neuropathic pain is “significantly attenuate”.

For `NNCCc1ccccc1` [phenelzine], which oxidative stress [3] is on record?
Its oxidative stress is “significantly reduce”.

For `CN[C@@H]1C[C@H]2O[C@@](C)([C@@H]1OC)n1c3ccccc3c3c4c(c5c6ccccc6n2c5c31)C(=O)NC4` [staurosporine], which “cell viability (MTT)” value (HMC3 microglial cells) is on record?
The value was “significant reduction in cell viability”.
